Test results taken from article PMC11748363, “Antimicrobial and Antiproliferative Properties of 2‐Phenyl‐N‐(Pyridin‐2‐yl)acetamides” (Chemical Biology & Drug Design, 2025).
Converted amounts (≈) assume the structure as drawn. Like-named read-outs stand apart in the source and are kept apart here.

Assays:
[1] = test system: Mycobacterium tuberculosis H37Ra; set-up: method as in Nawrot et al. 2021; conditions: previously published N‐pyridinyl benzamides; ref Nawrot et al. 2021; cited from earlier work
[2] = test system: Aspergillus flavus CCM 8363; assay: Antifungal microdilution broth MIC, AFla
[3] = test system: Candida krusei CCM 8271, ATCC 6258; assay: Antifungal microdilution broth MIC, CK; conditions: Pichia kudriavzevii
[4] = test system: Lichtheimia corymbifera CCM 8077; assay: Antifungal microdilution broth MIC, LC
[5] = test system: Klebsiella pneumoniae CCM 4415, ATCC 10031; assay: Antibacterial microdilution broth MIC, KP
[6] = test system: Candida tropicalis CCM 8264, ATCC 750; assay: Antifungal microdilution broth MIC, CT
[7] = test system: Candida parapsilosis CCM 8260, ATCC 22019; assay: Antifungal microdilution broth MIC, CP; conditions: Lodderomyces parapsilosis
[8] = test system: Candida albicans CCM 8320, ATCC 24433; assay: Antifungal microdilution broth MIC, CA
[9] = test system: Mycobacterium tuberculosis H37Ra; assay: Antimycobacterial microdilution broth MIC (resazurin), Mtb H37Ra; format: cell-based; conditions: for MIC: Mycobacterium tuberculosis, H37RA
[10] = test system: Staphylococcus epidermidis CCM 4418, ATCC 12228; assay: Antibacterial microdilution broth MIC, SE; format: cell-based
[11] = test system: Mycolicibacterium aurum DSM 43999; assay: Antimycobacterial microdilution broth MIC (resazurin), M. aurum; format: cell-based; conditions: DSM43999, read-out: MIC M. aurum
[12] = test system: Mycolicibacterium smegmatis DSM 43465; assay: Antimycobacterial microdilution broth MIC (resazurin), M. smegmatis; format: cell-based; conditions: DSM43465, read-out: MIC M. smegmatis
[13] = test system: Pseudomonas aeruginosa CCM 3955, ATCC 27853; assay: Antibacterial microdilution broth MIC, PA; format: cell-based
[14] = test system: Staphylococcus aureus subsp. aureus CCM 4750, ATCC 43300 (MRSA); assay: Antibacterial microdilution broth MIC, MRSA; format: cell-based; conditions: Staphylococcus aureus
[15] = test system: Trichophyton interdigitale CCM 8377, ATCC 9533; assay: Antifungal microdilution broth MIC, TI; conditions: Trichophyton interdigitale
[16] = test system: Staphylococcus aureus CCM 4223, ATCC 29213; assay: Antibacterial microdilution broth MIC, SA; format: cell-based; conditions: Staphylococcus aureus
HepG2 cell line = assay: Cytotoxicity CellTiter 96, HepG2; format: cell-based, human; conditions: Homo sapiens, HepG2, 24 h, 24 h incubation; ^c compound precipitated in the testing medium; ^d over the limit of tested concentrations
[17] = test system: Escherichia coli CCM 3954, ATCC 25922; assay: Antibacterial microdilution broth MIC, EC; format: cell-based
[18] = test system: Enterococcus faecalis CCM 4224, ATCC 29212; assay: Antibacterial microdilution broth MIC, EF; format: cell-based
[19] = test system: Acinetobacter baumannii DSM 30007, ATCC 19606; assay: Antibacterial microdilution broth MIC, ACI; format: cell-based
[20] = test system: Aspergillus fumigatus ATCC 204305; assay: Antifungal microdilution broth MIC, AF
[21] = CCM8363, 24 h, read-out: MIC AFla 24h
[22] = CCM8363, 48 h, read-out: MIC AFla 48h
[23] = CCM8077, 24 h, read-out: MIC LC 24h
[24] = CCM8077, 48 h, read-out: MIC LC 48h
[25] = Calculated from MIC (μg/mL), read-out: MIC Mtb H37Ra
[26] = ATCC204305, 24 h, read-out: MIC AF 24h
[27] = ATCC204305, 48 h, read-out: MIC AF 48h

Structure (SMILES)	MIC [2, 21] [µM]	MIC [2, 22] [µM]	MIC ([3]; 24 h, read-out: MIC CK 24h) [µM]	MIC ([3]; 48 h, read-out: MIC CK 48h) [µM]	MIC [4, 23] [µM]	MIC [4, 24] [µM]	MIC KP 24h [5] [µM]	MIC KP 48h [5] [µM]	MIC ([6]; 24 h, read-out: MIC CT 24h) [µM]	MIC ([6]; 48 h, read-out: MIC CT 48h) [µM]	MIC ([7]; 24 h, read-out: MIC CP 24h) [µM]	MIC ([7]; 48 h, read-out: MIC CP 48h) [µM]	MIC ([8]; 24 h, read-out: MIC CA 24h) [µM]	MIC ([8]; 48 h, read-out: MIC CA 48h) [µM]	MIC ([10]; 24 h, read-out: MIC SE 24h) [µM]	MIC ([10]; 48 h, read-out: MIC SE 48h) [µM]	MIC [11] [µg/mL]	MIC [12] [µg/mL]	MIC ([13]; 24 h, read-out: MIC PA 24h) [µM]	MIC ([13]; 48 h, read-out: MIC PA 48h) [µM]	other results
O=C(Nc1ccccn1)c1cccc(C(F)(F)F)c1 [C00003 R1=H,R2=3-CF3]																					MIC Mtb H37Ra (μg/mL), previously published compounds [1]: 31.25 µg/mL (≈ 117 µM)
O=C(Nc1ccccn1)c1cccc(Cl)c1 [C00003 R1=H,R2=3-Cl]																					MIC Mtb H37Ra (μg/mL), previously published compounds [1]: 62.5 µg/mL (≈ 269 µM)
O=C(Cc1ccc(C(F)(F)F)cc1)Nc1ccc(Cl)cn1 [Compound 29]	> 500	> 500	> 500	> 500	> 500	> 500	> 500	> 500	> 500	> 500	> 500	> 500	> 500	> 500	250 (≈ 78.7 µg/mL)	250 (≈ 78.7 µg/mL)	> 500	> 500	> 500	> 500	MIC [9, 25]: 397 µM; MIC ([9]; read-out: MIC Mtb H37Ra): 125 µg/mL; MIC ([14]; 24 h, read-out: MIC MRSA 24h): > 500 µM; MIC ([14]; 48 h, read-out: MIC MRSA 48h): > 500 µM; MIC ([15]; 72 h, read-out: MIC TI 72h): > 500 µM; MIC ([15]; 120 h, read-out: MIC TI 120h): > 500 µM; MIC ([16]; 24 h, read-out: MIC SA 24h): > 500 µM; MIC ([16]; 48 h, read-out: MIC SA 48h): > 500 µM; IC50 (HepG2 cell line): > 50 µM; MIC ([17]; 24 h, read-out: MIC EC 24h): > 500 µM; MIC ([17]; 48 h, read-out: MIC EC 48h): > 500 µM; MIC ([18]; 24 h, read-out: MIC EF 24h): > 500 µM; MIC ([18]; 48 h, read-out: MIC EF 48h): > 500 µM; MIC ([19]; 24 h, read-out: MIC ACI 24h): > 500 µM; MIC ([19]; 48 h, read-out: MIC ACI 48h): > 500 µM; MIC [20, 26]: > 500 µM; MIC [20, 27]: > 500 µM
O=C(Cc1ccc(F)cc1)Nc1ccccn1 [Compound 31]	> 500	> 500	500 (≈ 115 µg/mL)	500 (≈ 115 µg/mL)	> 500	> 500	> 500	> 500	> 500	> 500	500 (≈ 115 µg/mL)	> 500	> 500	> 500	250 (≈ 57.6 µg/mL)	> 500	250 (≈ 1090 µM)	62.5 (≈ 271 µM)	> 500	> 500	MIC [9, 25]: 543 µM; MIC ([9]; read-out: MIC Mtb H37Ra): 125 µg/mL; MIC ([14]; 24 h, read-out: MIC MRSA 24h): > 500 µM; MIC ([14]; 48 h, read-out: MIC MRSA 48h): > 500 µM; MIC ([15]; 72 h, read-out: MIC TI 72h): > 500 µM; MIC ([15]; 120 h, read-out: MIC TI 120h): > 500 µM; MIC ([16]; 24 h, read-out: MIC SA 24h): 500 µM (≈ 115 µg/mL); MIC ([16]; 48 h, read-out: MIC SA 48h): > 500 µM; IC50 (HepG2 cell line): 517 µM; MIC ([17]; 24 h, read-out: MIC EC 24h): > 500 µM; MIC ([17]; 48 h, read-out: MIC EC 48h): > 500 µM; MIC ([18]; 24 h, read-out: MIC EF 24h): > 500 µM; MIC ([18]; 48 h, read-out: MIC EF 48h): > 500 µM; MIC ([19]; 24 h, read-out: MIC ACI 24h): > 500 µM; MIC ([19]; 48 h, read-out: MIC ACI 48h): > 500 µM; MIC [20, 26]: > 500 µM; MIC [20, 27]: > 500 µM
O=C(Cc1ccc(F)cc1)Nc1ccc(Cl)cn1 [Compound 32]	> 500	> 500	> 500	> 500	> 500	> 500	> 500	> 500	> 500	> 500	> 500	> 500	> 500	> 500	125 (≈ 33.1 µg/mL)	125 (≈ 33.1 µg/mL)	500 (≈ 1890 µM)	62.5 (≈ 236 µM)	> 500	> 500	MIC ([9]; read-out: MIC Mtb H37Ra (μM)): 59 µM; MIC ([9]; read-out: MIC Mtb H37Ra (μg/mL)): 15.6 µg/mL; MIC ([14]; 24 h, read-out: MIC MRSA 24h): > 500 µM; MIC ([14]; 48 h, read-out: MIC MRSA 48h): > 500 µM; MIC ([15]; 72 h, read-out: MIC TI 72h): > 500 µM; MIC ([15]; 120 h, read-out: MIC TI 120h): > 500 µM; MIC ([16]; 24 h, read-out: MIC SA 24h): > 500 µM; MIC ([16]; 48 h, read-out: MIC SA 48h): > 500 µM; IC50 (HepG2 cell line): > 250 µM; MIC ([17]; 24 h, read-out: MIC EC 24h): > 500 µM; MIC ([17]; 48 h, read-out: MIC EC 48h): > 500 µM; MIC ([18]; 24 h, read-out: MIC EF 24h): > 500 µM; MIC ([18]; 48 h, read-out: MIC EF 48h): > 500 µM; MIC ([19]; 24 h, read-out: MIC ACI 24h): > 500 µM; MIC ([19]; 48 h, read-out: MIC ACI 48h): > 500 µM; MIC [20, 26]: > 500 µM; MIC [20, 27]: > 500 µM
O=C(Cc1ccc(F)cc1)Nc1cccc(Cl)n1 [Compound 33]	> 500	> 500	31.2 (≈ 8.27 µg/mL)	62.5 (≈ 16.5 µg/mL)	> 500	> 500	> 500	> 500	> 500	> 500	> 500	> 500	> 500	> 500	> 500	> 500	250 (≈ 945 µM)	500 (≈ 1890 µM)	> 500	> 500	MIC [9, 25]: 59 µM; MIC ([9]; read-out: MIC Mtb H37Ra): 15.6 µg/mL; SI (selectivity index) ([9]; SI = HepG2 IC50 (μM)/MIC MtbH37Ra (μM), calculated for compounds with MIC ≤ 31.25 μg/mL): 3.6; MIC ([14]; 24 h, read-out: MIC MRSA 24h): > 500 µM; MIC ([14]; 48 h, read-out: MIC MRSA 48h): > 500 µM; MIC ([15]; 72 h, read-out: MIC TI 72h): > 500 µM; MIC ([15]; 120 h, read-out: MIC TI 120h): > 500 µM; MIC ([16]; 24 h, read-out: MIC SA 24h): > 500 µM; MIC ([16]; 48 h, read-out: MIC SA 48h): > 500 µM; IC50 (HepG2 cell line): 213 µM; MIC ([17]; 24 h, read-out: MIC EC 24h): > 500 µM; MIC ([17]; 48 h, read-out: MIC EC 48h): > 500 µM; MIC ([18]; 24 h, read-out: MIC EF 24h): > 500 µM; MIC ([18]; 48 h, read-out: MIC EF 48h): > 500 µM; MIC ([19]; 24 h, read-out: MIC ACI 24h): > 500 µM; MIC ([19]; 48 h, read-out: MIC ACI 48h): > 500 µM; MIC [20, 26]: > 500 µM; MIC [20, 27]: > 500 µM
